Laboratory results from patent US20160143910A1, “METHODS OF TREATING CANCER AND PREVENTING CANCER DRUG RESISTANCE” (GENENTECH, INC., priority 2013, published 2016).
Blank lines part the entries; values can stand above or below the compound they belong to.

Experiments:
SW480 cells = test: DTP model of CRC cell line SW480 with 5-fluorouracil and SN-38; format: cell-based
Procedure: A model for resistance to standard-of-care chemotherapy for colorectal cancer (CRC) was developed by treating CRC cell line SW480 with a combination of 5-fluorouracil and the irinotecan active metabolite SN-38 in a ratio of their relative IC50 values (33 μM 5-FU and 6 ηM SN-38) continuously for 16 days, followed by drug withdrawal. The cells progressively die during this treatment period. The remaining DTP cells constitute approximately 8% of the initial cell population and appear large and non-dividing. After drug withdrawal, cells continue to die for several more days, but then re-initiate proliferation and expand to form DTEP colonies by about 2 weeks in the absence of drugs.

PC9 cells [1] = test: Drug tolerant persister (DTP) assay, PC9 with Tarceva (erlotinib); format: cell-based, human; conditions: stained 30 days after
Text: […] Viable cells remaining attached on the dish at the end of the third round of relevant drug treatment were considered to be DTPs, and were collected for analysis.
(§1) The structures of CPI-382 and CPI-383 are provided below.

A375 = test: Cell viability assay (cell titer Glo), A375; format: cell-based; conditions: Homo sapiens, A-375, 96 h; A375, 4 days of incubation, 8 doses
Procedure: (§2) One goal was to identify a cell line that would be sensitive to vemurafenib and amenable to DTP formation. For this, a set of 18 melanoma cell lines were tested by standard cell viability assay using cell titer Glo readout after 4 days of incubation with 8 different doses of vemurafenib. The results identified 3 melanoma cell lines (A375, Colo829 and HT144) with GI50's below 600 nM. All 3 of these cell lines were b raf mutant. After experiments with all these cell lines, Colo-829 was selected as the preferred cell line for DTP establishment.
(§3) 1.1 Identifying melanoma cell lines sensitive to Vemurafenib • Day 0: 1000 cells/well were plated in 100 μl total volume in a 96 well flat bottom plate. • Day 1: The cells were treated with vemurafenib. The highest concentration in the assay was 20 μM and was diluted 3 fold down with the lowest concentration being 9 nM. • Day 5: 100 μl of cell titer glo was added to each well and the plates read on Envision. The data was plotted using graphpad prism. 1.2 DTP establishment in melanoma cell lines • Day 0: Cells (4.5×10^6 cells/P150 dishes) were plated, 4 plates/cell line. • Day 2: All the cell lines were 60-80% confluent. […] The cells in these plates were counted and ⅛th the numbers were replated in 2 new P150 dishes. […] The cells were counted and the percentage of cells remaining on the Vemurafenib treated dish vs the control dish were identified. […]

HT144 = test: Cell viability assay (cell titer Glo), HT144; format: cell-based; conditions: Homo sapiens, HT-144, 96 h; HT144, 4 days of incubation, 8 doses
Procedure: as §2, §3

Colo829 = test: Cell viability assay (cell titer Glo), Colo829; format: cell-based; conditions: Homo sapiens, COLO-829, 96 h; Colo829, 4 days of incubation, 8 doses
Procedure: as §2, §3

H3K4me3 [2] = test: H3K4me3 MSD ELISA in H441; format: cell-based; conditions: H441 (NSCLC)
Procedure: (§4) Cells were rinsed with PBS and MSD Buffer AT (10 mM HEPES, pH 7.9, 5 mM MgCl2, 0.25M sucrose, Benzonase (1:10000), 1% Triton X-100 supplemented with fresh 1× Protease Inhibitor cocktail and 1 mM PMSF/AEBSF) was added. Cells were lysed for 30 minutes and then 10 uL 5M NaCl was added and allowed to lyse on ice for another 15 minutes. Lysates were rinse with 150 uL ice-cold NO Salt NO detergent buffer (20 mM Tris pH 7.5, 1 mM EDTA, 1 mM EGTA, supplemented with fresh 1× Protease Inhibitor cocktail and 1 mM PMSF).
(§5) MSD plates (Catalog #L15XA-3) were then coated with Capture Antibody Anti-histone (Millipore Catalog # MAB3422) for H3K4me3: 2 ug/mL final concentration and/or plates testing for H3: 1 ug/mL final concentration. MSD plates were then blocked with 5% Blocker A (MSD Catalog #R93AA-2). Lysates to MSD plates were subsequently transferred, sealed and incubated with shaking at RT for 2:30 hours and then incubated with detection antibody in 1% Blocker A in TBST for 30 min (anti-Histone H3 (#4499 from Cell Signaling) at 0.125 ug/mL and/or anti-K4Me3 (#9751 from Cell Signaling) at 1 ug/mL). Sulfo-tag rabbit antibody (MSD Catalog# R32AB-1) in 1% Blocker A in TBST was added and incubated for 1 h at RT. […] 1× Read Buffer (MSD Catalog #R92TD-3) was added and read on MSD SECTOR® Imager 2400. Data was analyzed data using MACRO template provided using samples treated with DMSO as 0% or Min. […]

SKBR3 [3] = test: Cell number with KDM5 antagonist alone, SKBR3; format: cell-based; conditions: after 96 hours in drug, concentrations below 25 uM
Procedure: (§6) 3×10^4 cells were plated in each well of a 12-well cluster dish. 24 hours after plating, media was removed and replaced with media containing drugs. Fresh media was replaced every 2 days until untreated cells reached confluence. Media was then removed, cells were washed with Phosphate Buffered Saline (PBS), and then fixed for 15 min with 4% formaldehyde in PBS. Cells were then washed with PBS and stained with the fluorescent nucleic acid stain, Syto60 (1 nM in PBS; Molecular Probes) for 15 min. Dye was removed, cell monolayers were washed with PBS, and fluorescence quantitation was carried out at 700 nm with an Odyssey Infrared Imager (Li-Cor Biosciences).

H441 cells = test: Drug tolerant persister (DTP) assay, H441; format: cell-based; conditions: in combination with the recited cancer therapy agent
Procedure: Specifically for carboplatin and paclitaxel DTPs, Cells were plated and grown to 60-70% confluency then treated with Carboplatin (5.38 uM) and Paclitaxel (1.25 uM) for 5 cycles of 24 hours on 48 hours off drug. DTPs were collected and analyzed 1 week after the final dose of chemotherapy.
as §1

H3K4me3 [4] = test: H3K4me3 MSD ELISA in PC9; format: cell-based, human; conditions: PC9 (NSCLC)
Procedure: as §4, §5

HCC1954 = test: Drug tolerant persister (DTP) assay, HCC1954; format: cell-based; conditions: HCC1954 (breast cancer); in combination with the recited cancer therapy agent
Procedure: (§7) Drug-sensitive cells were treated with relevant drug as described herein at concentrations exceeding 100 times the established IC50 values, for three rounds, with each treatment lasting 72 hours. Viable cells remaining attached on the dish at the end of the third round of relevant drug treatment were considered to be DTPs, and were collected for analysis.
as §1

SKBR3 [5] = test: Drug tolerant persister (DTP) assay, SKBR3; format: cell-based; conditions: in combination with the recited cancer therapy agent
Procedure: as §7, §1

H3K4me3 [6] = test: H3K4me3 MSD ELISA in SKBR3; format: cell-based; conditions: SKBR3 (breast cancer)
Procedure: as §4, §5

H3K4me3 [7] = test: H3K4me3 MSD ELISA in H596; format: cell-based; conditions: H596 (lung epithelial adenosquamous carcinoma)
Procedure: as §4, §5

PC9 cells [8] = test: Cell number with KDM5 antagonist alone, PC9; format: cell-based, human; conditions: after 96 hours in drug, concentrations below 50 uM
Procedure: as §6

PC9 cells [9] = test: Gamma irradiation of PC9 cells after KDM5 inhibitor pretreatment; format: cell-based, human
Procedure: For Gamma irradiation the cells were treated for 5 days with inhibitors replated at 500,000 cells with the inhibitor. After cell attachment (approximately 8 hours), the cells were irradiated, and cells were counted 5 days after irradiation.

[10] = nuc-RED PC9, various concentrations for 5 days prior to 1 uM Tarceva (erlotinib)

Compound: Nc1ncn([C@@H]2O[C@H](CO)[C@@H](O)[C@H]2O)c(=O)n1 [5-azacytidine]
- DTP survival (SW480 cells; 0.2 μM): does not affect DTP survival

Compound: O=c1[nH]c(Oc2cnn(Cc3ccccc3)c2)nc2cnccc12 [CPI-382]
- development of drug tolerant persisters (PC9 cells [1]; [10]): capable of reducing the development of drug tolerant persisters

Compound: O=c1[nH]c(Oc2cnn(Cc3ccccc3)c2)nc2ncccc12 [CPI-383]
- development of drug tolerant persisters (PC9 cells [1]; [10]): no significant effect

Compound: CC(/C=C/C(=O)NO)=C\[C@@H](C)C(=O)c1ccc(N(C)C)cc1 [Trichostatin A]
- DTP survival (SW480 cells; 20 ηM): does not affect DTP survival

- GI50 (A375): < 600 nM
- GI50 (HT144): < 600 nM
- GI50 (Colo829): < 600 nM
Compound: CCCS(=O)(=O)Nc1ccc(F)c(C(=O)c2c[nH]c3ncc(-c4ccc(Cl)cc4)cc23)c1F [vemurafenib, Vemurafenib]

Compound: CPI-455
- development of drug tolerant persisters (PC9 cells [1]; PC9, in combination with cancer therapy agent, 25 uM for 5 days prior to 1uM Tarceva): capable of inhibiting the development of drug tolerant persisters
- H3K4me3 (H3K4me3 [2]): increase H3K4me3
- cell number (SKBR3 [3]): did not substantially affect cell number
- development of drug tolerant persisters (H441 cells): capable of inhibiting the development of drug tolerant persisters
- H3K4me3 (H3K4me3 [4]): increase H3K4me3
- development of drug tolerant persisters (HCC1954): capable of inhibiting the development of drug tolerant persisters
- development of drug tolerant persisters (SKBR3 [5]): capable of inhibiting the development of drug tolerant persisters
- H3K4me3 (H3K4me3 [6]): increase H3K4me3
- H3K4me3 (H3K4me3 [7]): increase H3K4me3
- cell number (PC9 cells [8]): did not substantially affect cell number
- number of cells following γ-irradiation (PC9 cells [9]; PC9, pretreatment for 5 days, compared to inactive controls): decreases the number of cells following γ-irradiation
- development of drug tolerant persisters (PC9 cells [9]; in combination with radiation therapy): capable of inhibiting the development of drug tolerant persisters
